Source: patent publication US6544985B2, “Dihydro-benzo [b][1,4]diazepin-2-one derivatives” (Hoffman-La Roche Inc., priority 2001, dated 2003)

Assays:
[1] = molecular target: T1, recombinant rat mGluR2 expressed in CHO cells (Rattus norvegicus, UniProt P31421); experiment: [3H]-LY354740 binding on mGlu2 transfected CHO cell membranes (displacement binding assay)
T1 construct: expressed in transfected cells; vector pcDNA I-amp, construct pcD1mGR2
T1 sequence (P31421 19-872): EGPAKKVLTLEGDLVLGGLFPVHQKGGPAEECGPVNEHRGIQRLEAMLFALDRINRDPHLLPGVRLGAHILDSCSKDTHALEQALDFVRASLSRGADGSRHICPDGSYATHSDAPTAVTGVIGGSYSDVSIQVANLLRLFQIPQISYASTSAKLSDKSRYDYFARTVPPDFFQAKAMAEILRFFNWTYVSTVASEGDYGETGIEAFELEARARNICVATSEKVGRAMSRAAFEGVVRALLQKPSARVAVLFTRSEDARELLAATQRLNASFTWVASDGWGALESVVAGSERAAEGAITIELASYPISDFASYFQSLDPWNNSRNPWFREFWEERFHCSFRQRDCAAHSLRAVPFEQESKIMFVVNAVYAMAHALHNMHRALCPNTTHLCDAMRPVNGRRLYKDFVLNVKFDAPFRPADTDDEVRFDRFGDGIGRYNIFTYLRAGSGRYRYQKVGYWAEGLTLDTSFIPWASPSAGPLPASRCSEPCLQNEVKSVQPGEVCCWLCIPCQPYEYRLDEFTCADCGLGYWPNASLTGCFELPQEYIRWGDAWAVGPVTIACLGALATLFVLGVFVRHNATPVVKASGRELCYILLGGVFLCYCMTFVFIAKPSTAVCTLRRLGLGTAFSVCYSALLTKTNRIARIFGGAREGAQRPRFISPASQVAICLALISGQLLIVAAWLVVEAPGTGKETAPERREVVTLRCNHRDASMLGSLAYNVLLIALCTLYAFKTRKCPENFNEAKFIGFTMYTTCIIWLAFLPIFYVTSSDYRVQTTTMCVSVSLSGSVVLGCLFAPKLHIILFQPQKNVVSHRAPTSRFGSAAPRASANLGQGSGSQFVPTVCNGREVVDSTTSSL
Excerpt: These values were obtained by indirect measurement of the affinity of the compounds for the recombinant rat mGluR2 expressed in CHO cells using a displacement binding assay with 3H-LY354740.
Transfection and Cell Culture
cDNA encoding the rat mGlu2 receptor protein in pBluescript II was obtained from Prof. S. Nakanishi (Kyoto, Japan), and subcloned into the eukaryotic expression vector pcDNA I-amp from Invitrogen (NV Leek, The Netherlands). This vector construct (pcD1mGR2) was co-transfected with a psvNeo plasmid encoding the gene for neomycin resistance, into CHO cells by a modified calcium phosphate method described by Chen & Okayama (1988). The cells were maintained in Dulbecco's Modified Eagle medium with reduced L-glutamine (2 mM final concentration) and 10% dialysed foetal calf serum from Gibco BRL (Basel, Switzerland). Selection was made in the presence of G-418 (1000 ug/ml final). Clones were identified by reverse transcription of 5 μg total RNA, followed by PCR using mGlu2 receptor specific primers 5′-[sequence]-3′ and 5′-[sequence]-3′ in 60 mM Tris HCl (pH 10), 15 mM (NH4)2SO4, 2 mM MgCl2, 25 units/ml Taq Polymerase with 30 cycles annealing at 60° C. for 1 min., extention at 72° C. for 30 s, and 1 min. 95° C. denaturation.
Cells, cultured as above, were harvested and washed three times with cold PBS and frozen at −80° C. The pellet was resuspended in cold 20 mM HEPES-NaOH buffer containing 10 mM EDTA (pH 7.4), and homogenised with a polytron (Kinematica, AG, Littau, Switzerland) for 10 s at 10 000 rpm. After centrifugation for 30 min. at 4° C., the pellet was washed once with the same buffer, and once with cold 20 mM HEPES-NaOH buffer containing 0.1 mM EDTA, (pH 7.4). Protein content was measured using the Pierce method (Socochim, Lausanne, Switzerland) using bovine serum albumin as standard.
After thawing, the membranes were resuspended in cold 50 mM Tris-HCl buffer containing 2 mM MgCl2 and 2 mM CaCl2, (pH 7) (binding buffer). The final concentration of the membranes in the assays was 25 µg protein/ml. Inhibition experiments were performed with membranes incubated with 10 nM [^3H]-LY354740 at room temperature, for 1 hour, in presence of various concentrations of the compound to be tested. Following the incubations, membranes were filtered onto Whatmann GF/C glass fiber filters and washed 5 times with cold binding buffer. Non specific binding was measured in the presence of 10 μM DCG IV. After transfer of the filters into plastic vials containing 10 ml of Ultima-gold scintillation fluid (Packard, Zürich, Switzerland), the radioactivity was measured by liquid scintillation in a Tri-Carb 2500 TR counter (Packard, Zürich, Switzerland).
The inhibition curves were fitted with a four parameter logistic equation giving IC50 values, and Hill coefficients and the Ki values were calculated using the Cheng and Prusoff equation (Cheng, Y. and Prusoff, W. H., Biochem. Pharmacol. 1973, 22, 3099-3108). A small Ki value expresses high affinity of the compound towards the receptor.

SMILES	Ki [1] [nM]	melting point [°C]
CN(C)c1cc2c(cc1C(F)(F)F)NC(=O)CC(c1cccc(-c3cc(CN4CCOCC4)no3)c1)=N2 [Example 54, 7-Dimethylamino-4-[3-(3-morpholin-4-ylmethyl-isoxazol-5-yl)-phenyl]-8-trifluoromethyl-1,3-dihydro-benzo[b][1,4]diazepin-2-one]	125	165
CSc1nccn1-c1cccc(C2=Nc3cc(N(C)C)c(C(F)(F)F)cc3NC(=O)C2)c1 [Example 71, 7-Dimethylamino-4-[3-(2-methylsulfanyl-imidazol-1-yl)-phenyl]-8-trifluoromethyl-1,3-dihydro-benzo[b][1,4]diazepin-2-one]	19	192
CN(CC1CC1)c1cc2c(cc1C(F)(F)F)NC(=O)CC(c1ccnc(C#N)c1)=N2 [Example 78, 4-[8-(Cyclopropylmethyl-methyl-amino)-4-oxo-7-trifluoromethyl-4,5-dihydro-3H-benzo[b][1,4]diazepin-2-yl]-pyridine-2-carbonitrile]	5	155
N#Cc1cc(C2=Nc3cc(OCC(F)(F)F)c(C(F)(F)F)cc3NC(=O)C2)ccn1 [Example 88, 4-[4-Oxo-8-(2,2,2-trifluoro-ethoxy)-7-trifluoromethyl-4,5-dihydro-3H-benzo[b][1,4]diazepin-2-yl]-pyridine-2-carbonitrile]	4	252 to 255
CCCN(C)c1cc2c(cc1C)NC(=O)CC(c1cccc(C#N)c1)=N2 [Example 92, 3-[7-Methyl-8-(methyl-propyl-amino)-4-oxo-4,5-dihydro-3H-benzo[b][1,4]diazepin-2-yl]-benzonitrile]	25	195
CC(C)CN(C)c1cc2c(cc1Cl)NC(=O)CC(c1cccc(-n3nncc3CO)c1)=N2 [Example 101, 8-Chloro-4-[3-(5-hydroxymethyl-[1,2,3]triazol-1-yl)-phenyl]-7-(isobutyl-methyl-amino)-1,3-dihydro-benzo[b][1,4]diazepin-2-one]	20	201
CCN(CC)c1cc2c(cc1C#N)NC(=O)CC(c1cccc(-c3cc(C)no3)c1)=N2 [Example 107, 8-Diethylamino-2-[3-(3-methyl-isoxazol-5-yl)-phenyl]-4-oxo-4,5-dihydro-3H-benzo[b][1,4]diazepine-7-carbonitrile]	9	191
CCCN(C)c1cc2c(cc1Cl)NC(=O)CC(c1cccc(-n3nncc3CN3CCC3)c1)=N2 [Example 122, 4-[3-(5-Azetidin-1-ylmethyl-[1,2,3]triazol-1-yl)-phenyl]-8-chloro-7-(methyl-propyl-amino)-1,3-dihydro-benzo[b][1,4]diazepin-2-one]	15	169
CC(C)CN(C)c1cc2c(cc1Cl)NC(=O)CC(c1cccc(-n3ncnc3CO)c1)=N2 [Example 163, 8-Chloro-4-[3-(5-hydroxymethyl-[1,2,4]triazol-1-yl)-phenyl]-7-(isobutyl-methyl-amino)-1,3-dihydro-benzo[b][1,4]diazepin-2-one]	89	195
CCCN(C)c1cc2c(cc1C(F)(F)F)NC(=O)CC(c1cccc(-n3cncn3)c1)=N2 [Example 169]	27	185
CC(C)CN(C)c1cc2c(cc1C(F)(F)F)NC(=O)CC(c1cccc(-n3cncn3)c1)=N2 [Example 174, 7-(Isobutyl-methyl-amino)-4-(3-[1,2,4]triazol-1-yl-phenyl)-8-trifluoromethyl-1,3-dihydro-benzo[b][1,4]diazepin-2-one]	12	198
CC(C)CN(C)c1cc2c(cc1Cl)NC(=O)CC(c1cccc(-c3nc(CO)cs3)c1)=N2 [Example 186, 8-Chloro-4-[3-(4-hydroxymethyl-thiazol-2-yl)-phenyl]-7-(isobutyl-methyl-amino)-1,3-dihydro-benzo[b][1,4]diazepin-2-one]	3	135 to 136
CCNc1nc(-c2cccc(C3=Nc4cc(N(C)C)c(Cl)cc4NC(=O)C3)c2)cs1 [Example 195, 8-Chloro-7-dimethylamino-4-[3-(2-ethylamino-thiazol-4-yl)-phenyl]-1,3-dihydro-benzo[b][1,4]diazepin-2-one]	480	122 to 123
CN(C)c1cc2c(cc1C(F)(F)F)NC(=O)CC(c1cccc(-c3nnc(CO)s3)c1)=N2 [Example 204, 7-Dimethylamino-4-[3-(5-hydroxymethyl-[1,3,4]thiadiazol-2-yl)-phenyl]-8-trifluoromethyl-1,3-dihydro-benzo[b][1,4]diazepin-2-one]	17	242 to 246
CCCc1oc(C)nc1-c1cccc(C2=Nc3cc(N(C)C)c(C(F)(F)F)cc3NC(=O)C2)c1 [Example 212, 7-Dimethylamino-4-[3-(2-methyl-5-propyl-oxazol-4-yl)-phenyl]-8-trifluoromethyl-1,3-dihydro-benzo[b][1,4]diazepin-2-one]	46	211 to 212
CCCN(C)c1cc2c(cc1C(F)(F)F)NC(=O)CC(c1cccc(-c3nnc(CO)s3)c1)=N2 [Example 222, 4-[3-(5-Hydroxymethyl-[1,3,4]thiadiazol-2-yl)-phenyl]-7-(methyl-propyl-amino)-8-trifluoromethyl-1,3-dihydro-benzo[b][1,4]diazepin-2-one]	8	193 to 194
